Measured values from patent publication US20120041305A1, “LIGHT-EMITTING DYE FOR INTRAOPERATIVE IMAGING OR SENTINEL LYMPH NODE BIOPSY” (THE UNIVERSITY OF UTAH RESEARCH FOUNDATION, priority 2009, published 2012).
Where two headings read alike, the source gives them in different places.

Key:
[1] = Porcine model of lymphatic mapping (intradermal limb injection); type: in vivo, swine
[2] = cited from earlier work
[3] = vital blue dye alone, intradermal; cited from earlier work
[4] = 120 colon cancer patients, intramural bowel injection; cited from earlier work
[5] = 1,047 patients, intradermal, 10% fluorescein mixed 1:1 with 1% lidocaine hydrochloride; cited from earlier work
[6] = Human melanoma clinical trial, intraoperative sentinel lymph node fluorescence; type: in vivo; conditions: 0.001%, 1 ml intradermally in 4 locations, 3 out of 5 patients
Experimental: Patients with cutaneous malignant melanoma with a Breslow thickness of 0.75 mm or greater, or Clark level IV/V involvement, or ulceration were enrolled in the trial. All patients underwent preoperative lymphoscintigraphy with 99m-Technetium labeled sulfur colloid up to 24 hours before the operation. The normally used intraoperative vital blue dye was replaced by fluorescein. The initial starting dose of fluorescein was 0.001% and 1 ml was injected intradermally intraoperatively in 4 locations around the melanoma biopsy site. At this does, sentinel lymph node fluorescence was identified in 3 out of 5 patients (60%). […] The 0.01% dose was used in the subsequent phase II study.

For `CCN(CC)c1ccc(C(=C2C=CC(=[N+](CC)CC)C=C2)c2cc(S(=O)(=O)[O-])ccc2S(=O)(=O)[O-])cc1.[Na+]` [Lymphazurin, isosulfan blue], the “forelimb injections leading to a SLN” value ([1]; swine forelimb, injected four times) is listed as “failed to lead to a SLN”, the “patients with anaphylactoid reaction or life threatening anaphylactic shock” value ([2]; 1% dye, lymphatic mapping and SLNB) is listed as 0.1-2% and the “chance of a life-threatening anaphylactic event caused by injection” value ([2]; human, in vivo) is listed as 1%. The “cases in which the SLN can be identified” value [3] was “approximately 87%”.
For `O=C1OC2(c3ccc(O)cc3Oc3cc(O)ccc32)c2ccccc21` [fluorescein, Fluorescein], the adverse reactions [4] is given as “none of the 120 patients suffered any adverse reactions”, the “forelimb injections developing visible fluorescence leading to a SLN” value ([1]; swine forelimb, one of seven injections) is given as 14% and the “hindlimb injections showing lymphatic trunks under the skin leading to the SLN” value ([1]; swine hindlimb, nine of ten injections) is given as 90%. For the same molecule, the adverse reactions [5] was “without adverse reactions” and the “patients with sentinel lymph node fluorescence identified” value [6] was 60%.
